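Each compound was tested at five concentrations against cells in 96-well plates for 48 hours. TGI: total growth inhibition.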
How the values were obtained:
Test in all cases: inhibition of tumour cell growth, NCI panel, 48 h
NCI-H23 lung = test system: NCI-H23 lung
KM20L2 colon = test system: KM20L2 colon
UACC-62 melanoma = test system: UACC-62 melanoma
CCRF-CEM leukemia = test system: CCRF-CEM leukemia
SF-295 CNS = test system: SF-295 CNS
SNB-78 CNS = test system: SNB-78 CNS
KM12 colon = test system: KM12 colon
LXFL 529 NSCLC = test system: LXFL 529 NSCLC
SNB-75 CNS = test system: SNB-75 CNS
A498 renal = test system: A498 renal
COLO 205 colon = test system: COLO 205 colon
HOP-62 NSCLC = test system: HOP-62 NSCLC
OVCAR-4 ovarian = test system: OVCAR-4 ovarian
MDA-MB-231 breast = test system: MDA-MB-231 breast

| SMILES | TGI (NCI-H23 lung) | TGI (KM20L2 colon) | TGI (UACC-62 melanoma) | TGI (CCRF-CEM leukemia) | TGI (SF-295 CNS) | TGI (SNB-78 CNS) | TGI (KM12 colon) | TGI (LXFL 529 NSCLC) | TGI (SNB-75 CNS) | TGI (A498 renal) | TGI (COLO 205 colon) | TGI (HOP-62 NSCLC) | TGI (OVCAR-4 ovarian) | TGI (MDA-MB-231 breast) |
| --- | --- | --- | --- | --- | --- | --- | --- | --- | --- | --- | --- | --- | --- | --- |
| c1ccc2c(c1)OCCOCCOc1ccccc1OCCO2 | > 100 µM | 87.7 µM | > 100 µM | > 100 µM | > 100 µM | > 100 µM | > 100 µM | > 100 µM | > 100 µM | > 100 µM | > 100 µM | > 100 µM | > 100 µM | – |
| CC(=O)OC(CCC1(C)OC1COc1ccc(CCNC(=O)C=C(C)C)cc1)C(C)(C)OC(C)=O (centres undefined) | > 100 µM | > 100 µM | > 100 µM | > 92.7 µM | > 100 µM | > 100 µM | 78.4 µM | > 100 µM | 98.1 µM | > 100 µM | > 92.1 µM | > 100 µM | > 100 µM | > 100 µM |
| Nc1c(S(=O)(=O)c2ccccc2)c2nc3ccccc3nc2n2c1nc1ccccc12 | > 50 µM | > 100 µM | > 100 µM | > 100 µM | > 53.4 µM | > 62.1 µM | > 100 µM | > 100 µM | > 51.1 µM | > 100 µM | > 100 µM | > 49.6 µM | > 80.5 µM | – |
| Cc1ccc(C(=O)NCc2ccccc2)cc1N=NN(C)C | > 100 µM | > 100 µM | > 100 µM | > 100 µM | > 100 µM | > 100 µM | > 100 µM | > 100 µM | – | – | > 100 µM | > 100 µM | > 100 µM | > 100 µM |
| CCCCCCCCCCCC(=O)OC[C@@H](C[As](=O)(O)O)OC(=O)CCCCCCCCCCC | 17.8 µM | 26.4 µM | 6.94 µM | > 94.4 µM | 27.1 µM | – | 17.1 µM | 17.7 µM | 16.6 µM | 24.3 µM | 36.6 µM | 28.8 µM | 29.1 µM | 15.4 µM |
| CC(=O)O[C@]12CCCCCC1C1(O)C(O)CCCCC12 (some centres undefined) | > 100 µM | > 100 µM | > 100 µM | > 100 µM | > 100 µM | > 100 µM | > 100 µM | > 100 µM | > 100 µM | – | > 100 µM | > 100 µM | > 100 µM | – |
| Cc1ccc(NC(=O)C(=O)C2C(=O)NC(=O)NC2=O)cc1C | > 100 µM | > 100 µM | > 100 µM | > 100 µM | > 100 µM | > 100 µM | > 100 µM | > 100 µM | > 100 µM | – | > 100 µM | > 100 µM | > 100 µM | – |
| CN(C)CCCNc1ccc2ncn3c4ccc(O)cc4c(=O)c1c23 | 10.7 µM | 14.4 µM | 13.5 µM | 32.6 µM | 15.6 µM | 26.6 µM | 16.7 µM | 17.7 µM | 11.7 µM | 7.6 µM | 15.3 µM | 8.97 µM | 8.01 µM | 21.7 µM |
| O=C1OCC2OC(=O)c3cc(O)c(O)c(O)c3-c3c(O)c(O)c(O)c4c3C(=O)OC(C2OC(=O)c2cc(O)c(O)c(O)c2-c2c1cc(O)c(O)c2O)C1OC(=O)C2C4=C(O)C(=O)C23Oc2cc(O)c4c(c2[C@H]13)O[C@H](c1ccc(O)c(O)c1)[C@@H](O)C4 (some centres undefined) | 47.3 µM | – | 45.6 µM | > 100 µM | 53.5 µM | – | > 100 µM | – | 76 µM | > 100 µM | 54.9 µM | > 100 µM | 43.5 µM | 43.5 µM |

From PubChem BioAssay (NCI)
